What all share (assay): growth of human tumour cells (NCI), 48 h
The subject of assay [1] is NCI-H23.
The test system of assay [2] is SNB-19.
Assay [3] concerns NCI-H460.
Assay [4] relates to K562.
For assay [5], the system named is SN12C.
The subject of assay [6] is UACC-257.
The test system of assay [7] is SR.
In assay [8] the test system is MDA-MB-435.
The subject of assay [9] is DU-145.
For assay [10], the system named is MCF7.
Assay [11] deals with HCT-15.
The test system of assay [12] is UACC-62.
Assay [13] deals with SF-539.
In assay [14] the test system is ACHN.
For assay [15], the system named is OVCAR-5.
For assay [16], the system named is SF-268.
Assay [17] has as its system OVCAR-4.
In assay [18] the test system is M14.
Assay [19] concerns SK-OV-3.

Values joined by “and” are separate entries in the source; they are usually repeats but may differ in a detail not shown here. Equal values may be shown once.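 Exposure lasted 48 hours, with cells grown in 96-well plates and compounds tested at five concentrations. GI50: concentration for 50% inhibition of growth.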 Active and inactive are the calls of the source. No stated cut-off is given here; in the data, active = GI50 up to about 1.1 µM and inactive = higher. Where a SMILES comes first, the peptide text is derived from it. [ ]: non-standard residue; d: D form. The star is where a group is joined. Phe(4-NO2) = N[CH](Cc1ccc([N+](=O)[O-])cc1)C(=O)O; Boc = CC(C)(C)OC(=O)*; OtBu = CC(C)(C)O* Where only a bound is given, the exact number is not on record here.

Consider `CCN(CC)CCNc1nc2ccc([N+](=O)[O-])cc2[n+]([O-])n1`, for which the GI50 in [1] was 18.3 µM (inactive); in [2], 41.4 µM (inactive); in assay [3], 10.4 µM (inactive); in assay [4], 13.2 µM (inactive); in [5], 19 µM (inactive); in [6], 15.8 µM (inactive). Moreover, the GI50 in assay [7] is 18.4 µM (inactive); in assay [8] it was 16.1 µM (inactive); in assay [9] it was 34.2 µM (inactive); in assay [10], 2.24 µM (inactive); in [11] it was 11.5 µM; in assay [12], 16.6 µM (inactive). The GI50 was 23.3 µM (inactive) in assay [13]; 36.8 µM (inactive) in assay [14]; 16 µM (inactive) in assay [15]; 41 µM (inactive) in assay [16]; 13.7 µM (inactive) in assay [17]; 16.2 µM (inactive) in assay [18].

With `O=C(NCCO)Nc1c(C(F)(F)F)cc(-c2ccccc2)[nH]c1=O`, the GI50 in assay [1], in [2], in assay [3], in assay [4], in [5] and in assay [6] was > 100 µM (inactive) in each case. Further, the GI50 in assay [19] is > 100 µM (inactive); in assay [8], > 100 µM (inactive); in assay [9], > 100 µM (inactive); in [10], > 100 µM (inactive); in assay [11] it was above 100 µM; in [12] it was > 100 µM (inactive). Further, the GI50 in [14], in [15], in assay [17] and in assay [18] was > 100 µM (inactive) in each case.

Take `N=C(N)NCCCC(NC(=O)c1c2ccccc2nc2ccccc12)C(=O)O` (stereo not drawn): the GI50 in [1], in assay [2], in assay [3], in assay [4], in assay [5] and in [6] was > 100 µM (inactive) throughout. Further, the GI50 is > 100 µM (inactive) in assay [7]; > 100 µM (inactive) in [19]; > 100 µM (inactive) in [8]; > 100 µM (inactive) in assay [9]; > 100 µM (inactive) in assay [10]; above 100 µM in [11]. For the same compound, the GI50 in assay [12], in assay [13], in [14], in [15], in [16] and in assay [17] was > 100 µM (inactive) throughout. The GI50 in assay [18] is > 100 µM (inactive).

As for `CC(=O)NC(CCC(=O)OC(C)(C)C)C(=O)NC(CCC(=O)OC(C)(C)C)C(=O)NC(Cc1ccc([N+](=O)[O-])cc1)C(=O)NC(CCCCNC(=O)OC(C)(C)C)C(=O)NC(CCCCNC(=O)OC(C)(C)C)C(=O)NCC(=O)O` (stereo not drawn) (Ac-E(OtBu)E(OtBu)[Phe(4-NO2)]K(Boc)K(Boc)G-OH; configuration not given here), the GI50 in assay [1], in assay [2], in [3], in assay [4], in assay [5] and in assay [6] was > 100 µM (inactive) in each case. Moreover, the GI50 in assay [7] was > 100 µM (inactive); in assay [19] it was > 100 µM (inactive); in [8], > 100 µM (inactive); in assay [9], > 100 µM (inactive); in assay [10], > 100 µM (inactive); in assay [11], above 100 µM. Besides, the GI50 in assay [12], in assay [13], in [14], in assay [15], in assay [16] and in assay [17] was > 100 µM (inactive) throughout. Besides, the GI50 in [18] is 20.5 µM (inactive).

On to `CC(=O)/C(=C/n1ccc(=O)[nH]c1=S)C(=O)Nc1ccccc1C`, for which the GI50 in assay [1], in assay [2], in assay [3], in assay [5], in assay [6] and in assay [19] was > 100 µM (inactive) throughout. In addition, the GI50 is > 100 µM (inactive) in [8]; > 100 µM (inactive) in assay [9]; > 100 µM (inactive) in assay [10]; above 100 µM in assay [11]; > 100 µM (inactive) in [12]; > 100 µM (inactive) in [13]. In addition, the GI50 in [14], in assay [15], in assay [16], in assay [17] and in [18] was > 100 µM (inactive) in each case.

For `Cc1c/c(=N/NC(=O)c2ccncc2)n2nc(N)sc2n1`, the GI50 in assay [1], in assay [2], in assay [3], in assay [4], in assay [5] and in assay [6] was > 100 µM (inactive) each time. Also, the GI50 in [7] is > 100 µM (inactive); in assay [19], > 100 µM (inactive); in assay [8] it was > 100 µM (inactive); in [9], > 100 µM (inactive); in [10], > 100 µM (inactive); in assay [11] it was above 100 µM. In addition, the GI50 in assay [12], in [13], in [14], in assay [15], in assay [17] and in assay [18] was > 100 µM (inactive) in each case.

`CNC1=Nc2ccccc2C(=S)N2CSC[C@@H]12`: the GI50 was > 100 µM (inactive) in assay [1]; > 100 µM (inactive) in assay [2]; > 100 µM (inactive) in assay [3]; > 100 µM (inactive) in [4]; > 100 µM (inactive) in assay [5]; 7.55 µM (inactive) in assay [7]. Further, the GI50 was > 100 µM (inactive) in assay [19]; > 100 µM (inactive) in assay [8]; > 100 µM (inactive) in [9]; > 100 µM (inactive) in assay [10]; above 100 µM in assay [11]; > 100 µM (inactive) in assay [12]. The GI50 in assay [13], in assay [14], in assay [15], in assay [16], in assay [17] and in assay [18] was > 100 µM (inactive) each time.

Turning to `COC(=O)[C@@H]1[C@H](O)[C@H](C)[C@H](O)[C@@](C)(O)/C=C\C=C(\C)C(=O)Nc2c(C)c(OC(C)=O)c3c(c2O)C(=O)C(C)=C2OCOC(=C23)/C(C)=C/[C@@](C)(O)[C@H](O)[C@@H](C)[C@H]1OC(C)=O`, the GI50 in assay [1] is 27.4 µM (inactive); in [2], > 100 µM (inactive) and 91.4 µM (inactive); in assay [3] it was 49 µM (inactive); in assay [4], 23.4 µM (inactive); in assay [5] it was 43.6 µM (inactive); in [6], 27.2 µM (inactive) and 80.4 µM (inactive). Further, the GI50 in assay [19] is 82.2 µM (inactive); in assay [9] it was > 66.8 µM (inactive); in assay [11], 26.9 µM; in assay [12] it was 41.3 µM (inactive); in [13], > 100 µM (inactive) and 50.7 µM (inactive); in [14], 79.4 µM (inactive). The GI50 in assay [15] was > 66.8 µM (inactive); in [16], 4.76 µM (inactive); in assay [17], 55.6 µM (inactive).

For `CC(=O)OC1C/C(C)=C/CCC(C)/C=C/C2(C)CCC(C(C)(C)O)C12` (stereo not drawn), the GI50 in assay [1] is 42.5 µM (inactive); in [2], > 100 µM (inactive); in [3], 39.2 µM (inactive); in [4], 36.7 µM (inactive); in assay [5] it was 32.1 µM (inactive); in assay [6] it was 26.1 µM (inactive). Also, the GI50 in assay [7] was 18.6 µM (inactive); in assay [19], > 100 µM (inactive); in assay [11] it was 43.9 µM; in assay [12], 80.4 µM (inactive); in [13] it was > 100 µM (inactive); in [14], 36 µM (inactive). Further, the GI50 in [15] was > 100 µM (inactive); in assay [16], 61.7 µM (inactive); in [17] it was 49.8 µM (inactive); in assay [18], 52.6 µM (inactive).

For the compound `NNC(=S)N/N=C(\CC1OC(=O)c2ccccc21)c1ccccc1O` (stereo not drawn), the GI50 is 49.9 µM (inactive) in [1]; 32.4 µM (inactive) in assay [2]; 40.8 µM (inactive) in assay [3]; 60.5 µM (inactive) in assay [4]; 46.8 µM (inactive) in assay [5]; > 100 µM (inactive) in [6]. The GI50 in assay [7] is 16.3 µM (inactive); in assay [19], > 100 µM (inactive); in [11] it was 55.8 µM; in assay [12] it was 35.5 µM (inactive); in assay [13], 19.5 µM (inactive); in assay [14] it was 59.3 µM (inactive). Moreover, the GI50 in assay [15] was 18.2 µM (inactive); in [16], 50 µM (inactive); in [17], 88.7 µM (inactive); in assay [18] it was 61.9 µM (inactive).

Take `O=C1C=Cc2c(-c3ccccc3)oc3cccc1c23`: the GI50 in assay [1] is 16.4 µM (inactive); in assay [2], 24 µM (inactive); in assay [3], 5.07 µM (inactive); in assay [4], 17.2 µM (inactive); in assay [5], 9.82 µM (inactive); in assay [6] it was 35.4 µM (inactive). The GI50 in [7] is 10.1 µM (inactive); in assay [19], 24.4 µM (inactive); in assay [11] it was 5.97 µM; in assay [12] it was 11.2 µM (inactive); in [13], 12 µM (inactive); in assay [14] it was 13.2 µM (inactive). For the same compound, the GI50 in assay [15] was 26.4 µM (inactive); in assay [16] it was 21.1 µM (inactive); in [17], 40.7 µM (inactive); in assay [18], 30.5 µM (inactive).

The record behind these values is ChEMBL document CHEMBL1201862, “PubChem BioAssay data set” (2004).
